Columns and labels:
[1] = system: SCCVII (mouse squamous cell carcinoma) tumors; test: SCCVII tumor growth with TH-302 alone, pyruvate alone or in combination; assay type: in vivo; details: daily for 3 days
Protocol: (§1) Mouse legs bearing tumors were prepared by subcutaneously injecting 5×10^5 SCCVII (mouse squamous cell carcinoma) cells or 1×10^6 HT29 (human colon cancer) cells to the hind leg of C3H or athymic nude mice, respectively. When tumor size became 400-500 mm^3, treatments were initiated. Mice were treated daily for 3 days with hypoxia-activated prodrug TH-302 (100 mg/kg/day, i.p.) alone, pyruvate (1.15 mmol/kg/day, i.v.) alone, or TH-302 injection 30 min. after pyruvate injection. Treatments were started on day 7 (SCCVII; FIG. 6A) or day 8 (HT29; FIG. 6B). […] Tumor growth (volume/size in mm^3) was measured daily by caliper.

[2] = system: HT29 (human colon cancer) tumors; test: HT29 tumor growth with TH-302 alone or in combination with pyruvate; assay type: in vivo; details: TH-302 100 mg/kg/day i.p., pyruvate 1.15 mmol/kg/day i.v. 30 min before, daily for 3 days
Protocol: as §1

[3] = system: SCCVII solid tumors; test: EPR imaging (EPRI) of tumor pO2 after i.v. pyruvate in SCC tumor-bearing mice; assay type: in vivo, mouse; details: for Median tumor pO2 value: before injection 11.8±1.3; for Percentage of hypoxic region (pO2<10 mmHg) in the tumors: before injection 39.7±9.8
Protocol: All animal experiments were carried out in compliance with the Guide for the care and use of laboratory animal resources (National Research Council, 1996) and approved by the National Cancer Institute Animal Care and Use Committee. Female C3H/Hen mice were supplied by the Frederick Cancer Research Center, Animal Production (Frederick, Md.). SCCVII solid tumors were formed by injecting 5×10^5 SCC cells subcutaneously into the right hind leg of C3H mice. Body weight measured before the experiments was 21-27 g. In EPRI and MRI measurements, mice were anesthetized by isoflurane (4% for induction and 2% for maintaining anesthesia) in medical air (750 mL/min) and positioned prone with their tumor-bearing legs placed inside the resonator. During the measurements, the breathing rate of the mice was monitored with a pressure transducer (SA Instruments Inc.) and maintained at 60±10 breaths per minute. Core body temperature was also monitored with a non-magnetic rectal temperature probe (FISO) and maintained at 37±1° C. with a flow of warm air. For administration of TAM and [1-^13C]pyruvate solution, a 30-gauge needle was cannulated into the tail vein and extended using polyethylene tubing (PE-10).
Technical details of the EPR scanner operating at 300 MHz, data acquisition based on the single-point imaging (SPI) modality, image reconstruction, and the oxygen mapping procedure were described previously (Matsumoto et al., Magn Reson Med, 55:1157-1163, 2006; and Matsumoto et al., J Clin Invest, 118:1965-1973, 2008). Isotonic [1-^13C]pyruvate solution (pH 7.4) was prepared by dissolving 30 μL of [1-^13C]pyruvic acid in 4.5 mL of alkaline solution containing 100 mg/L EDTA. After the mouse was placed in the resonator, TAM (OX063, GE Healthcare) was injected intravenously through the cannula placed in the tail vein. TAM was given as a 1.125 mmol/kg bolus followed by 0.04 mmol/kg/min continuous injection. After acquiring the first EPR data set, 1.15 mmol/kg bolus (300 μL of 96 mM) [1-^13C]pyruvate solution was injected intravenously through the cannula. EPRI measurements were carried out 30 minutes and 1 hour after [1-^13C]pyruvate injection. Then, the mouse was released. The mouse was anesthetized and canulated again, 1.125 mmol/kg TAM was injected to the mouse, and EPRI measurement was carried out 5 hours after the [1-^13C]pyruvate injection.
EPR signals were collected following the RF excitation pulses (60 ns, 80 W, 70° flip angle) using an analog digital converter (200 Msamples/s). EPR measurements were started 3 minutes after TAM injection, and it took 9 minutes to obtain a data set for a 3D image. The repetition time (TR) was 6.0 μs. The FIDs (free induction decays) were collected under a nested looping of the x, y, z gradients and each time point in the FID underwent phase modulation enabling 3D spatial encoding. In order to get reproducible values of T2* and to retain a more or less uniform image resolution, a set of 3 gradients was used, and data for corresponding images were collected in an interleaved fashion (Matsumoto et al., Magn Reson Med, 55:1157-1163, 2006). If the power spectrum of the pulse is uniform throughout the k-space for all the gradients used, the spatial resolution is simply defined by FOV (field of view) and the number of k-samples (elements in k-space).
Anatomical images of the tumor-bearing leg were obtained using 7 T MRI after the EPRI measurements. […] An identical parallel coil resonator (17 mm inner diameter and 25 mm long) with Q switch was used for both EPRI and MRI operating at 300 MHz (Matsumoto et al., J Clin Invest, 118:1965-1973, 2008).
MRI scans were conducted using a 7 T scanner controlled with ParaVision 5.0 (Bruker BioSpin MRI GmbH). […]

[4] = system: SCCVII solid tumors; test: Immunohistochemical analysis with hypoxia marker pimonidazole in SCC tumors; assay type: in vivo, mouse; details: control mice 21.1±1.4, n=5
Protocol: A hypoxia marker, pimonidazole, was given to tumor-bearing mice intravenously 30 minutes before excising tumors. The mice were euthanized, and tumor tissues were removed from mice. The tumor tissues were fixed with 4% paraformaldehyde and frozen using ultracold ethanol. The frozen tumors were sectioned to 10 μm thick using a cryostat, and the sections were thaw-mounted on glass slides. After blocking non-specific binding sites with Protein Block Serum-Free reagent (Dako North America Inc., Carpinteria, Calif.), the slides were covered by rabbit anti-pimonidazole antisera (Natural Pharmacia International, Inc., Burlington, Mass.; 1:250) overnight at 4° C. The sections were incubated with Alexa Fluor 555 anti-rabbit secondary antibody (Invitrogen, Carlsbad, Calif.; 1:500). Then they were mounted on Prolong Gold antifade reagent with DAPI (Invitrogen). Fluorescence microscopic observation was performed using an Axiovert 200 inverted fluorescent microscope (Carl Zeiss), and images of tissues were captured using Image-Pro Plus Ver. 4.0 imaging software. The pimonidazole positive area was quantified using Image J software.

[5] = system: SCC tumor; test: Tumor growth after X-irradiation (12 Gy) with [1-13C]pyruvate injection; assay type: in vivo, mouse; details: X-irradiation 12 Gy 30 minutes after [1-13C]pyruvate injection; X-irradiation without pyruvate 6-7 days
Excerpt: Mice were fixed in the specially designed jig for X-irradiation, by which mice were restricted from moving without anesthesia. X-irradiation (12 Gy) was delivered to tumor-bearing leg 6 days after SCC tumor implantation using a XRAD-320 (Precision X-ray Inc.).
Hypoxia is a critical factor that determines tumor resistance to radiotherapy and some kinds of chemotherapy. Although the pyruvate-induced hypoxia is transient, the decrease in oxygen concentration may limit the efficacy of cancer therapy, if the cancer treatments are provided immediately after MRI with hyperpolarized [1-^13C]pyruvate. To elucidate the effect of exogenously injected pyruvate on radiotherapy, tumor growth was monitored after X-irradiation with and without [1-^13C]pyruvate injection (FIG. 4). X-irradiation (12 Gy) without pyruvate administration suppressed the tumor growth for 6-7 days compared with non-treated control group which received neither X-irradiation nor pyruvate administration. […] Secondary mechanisms such as activation of hypoxia inducible transcription factor-1 signaling during the pyruvate-induced transient hypoxia might partially contribute to the long lasting effect of pyruvate on radiotherapy in addition to the direct effect of oxygen concentration at the time of radiation. […]

[6] = SCCVII, TH-302 100 mg/kg/day i.p., pyruvate 1.15 mmol/kg/day i.v. 30 min before

Row | SMILES | Period of time until tumor becomes 2 times original tumor size [1, 6] | Period of time until tumor becomes 3 times original tumor size [1, 6] | effect on SCCVII tumor growth ([1]; treatment starting 7 days post-tumor implantation) | Period of time until tumor becomes 3 times original tumor size [2] | Period of time until tumor becomes 4 times original tumor size [2] | median pO2 value in tumor ([3]; 1-2 hours after hyperpolarized [1-13C]pyruvate 1.15 mmol/kg i.v. bolus, control tumor group 11.7±0.7, mean±SEM, n=4) | hypoxic fraction (pixels with pO2<10 mm Hg) ([3]; 1-2 hours after hyperpolarized [1-13C]pyruvate 1.15 mmol/kg i.v., control tumors 37.1±5.6, mean±SEM, n=4) | Median tumor pO2 value ([3]; 30 minutes after [1-13C]pyruvate 1.15 mmol/kg i.v., n=4) | decrease of tumor pO2 ([3]; 30 minutes after half dose (0.58 mmol/kg b. w.)) | Percentage of hypoxic region (pO2<10 mmHg) in the tumors ([3]; 30 minutes after pyruvate 1.15 mmol/kg i.v.) | Median tumor pO2 value ([3]; 1 hour after [1-13C]pyruvate 1.15 mmol/kg i.v., n=4) | Percentage of hypoxic region (pO2<10 mmHg) in the tumors ([3]; 1 hour after pyruvate 1.15 mmol/kg i.v.) | Median tumor pO2 value ([3]; 5 hours after [1-13C]pyruvate 1.15 mmol/kg i.v., n=4) | Percentage of hypoxic region (pO2<10 mmHg) in the tumors ([3]; 5 hours after pyruvate 1.15 mmol/kg i.v.) | Pimonidazole positive area in tumors ([4]; 1 hour after [1-13C]pyruvate injection) | Pimonidazole positive area in tumors ([4]; 5 hours after [1-13C]pyruvate injection) | delay in tumor growth [5]
1 | Cn1c(COP(=O)(NCCBr)NCCBr)cnc1[N+](=O)[O-] [TH-302] | 3.4 days | 5.4 days | minor or small effect | 6.8 days | 8.4 days | – | – | – | – | – | – | – | – | – | – | – | –
2 | CC(=O)C(=O)O [pyruvate, 2-oxopropanoate] | – | – | – | – | – | 9.2±1.1 mmHg | 58.5±10.2% | 5.8±0.6 mmHg | 32% | 68.5±3.0% | 7.7±0.6 mmHg | 63.8±2.6% | 11.6±1.2 mmHg | 43.9±5.7% | 29.5±2.9% | 18.7±1.8% | 3 to 4 days

Source: patent publication US9402820B2, “Use of pyruvate or succinate to enhance the efficacy of a hypoxia activated prodrug for the treatment of tumors” (THE UNITED STATES OF AMERICA AS REPRESENTED BY THE …, priority 2011, dated 2016)
